Marks after values point to notes of the source that are not given here. Primed or numbered codes have the meaning given here. The star is where a group is joined. Ac3‑α‑GalNAc = per-acetylated α-N-acetylgalactosamine (O-glycoside), CC(=O)N[C@@H]1[C@@H](OC(C)=O)[C@@H](OC(C)=O)[C@@H](COC(C)=O)O[C@@H]1*; Ac4‑β‑Gal = tetraacetyl-β-galactoside (peracetylated β-galactose), CC(=O)OC[C@H]1O[C@@H](*)[C@H](OC(C)=O)[C@@H](OC(C)=O)[C@H]1OC(C)=O; Ac3‑α‑GalNAc″ = peracetylated alpha-N-acetylgalactosamine, CC(=O)N[C@@H]1[C@@H](OC(C)=O)[C@@H](OC(C)=O)[C@@H](COC(C)=O)O[C@@H]1*; Ac3‑β‑GlcNAc = per-acetylated β-N-acetylglucosamine, CC(=O)N[C@@H]1[C@@H](OC(C)=O)[C@H](OC(C)=O)[C@@H](COC(C)=O)O[C@H]1*; Ac4‑β‑Glc = per-acetylated β-glucose (tetraacetyl), CC(=O)OC[C@H]1O[C@@H](*)[C@H](OC(C)=O)[C@@H](OC(C)=O)[C@@H]1OC(C)=O; αGalNAc = CC(=O)N[C@@H]1[C@@H](O)[C@@H](O)[C@@H](CO)O[C@@H]1*; βGlcNAc = CC(=O)N[C@@H]1[C@@H](O)[C@H](O)[C@@H](CO)O[C@H]1*; βGlc = OC[C@H]1O[C@@H](*)[C@H](O)[C@@H](O)[C@@H]1O; Palmitoyl = CCCCCCCCCCCCCCCC(=O)*
Legend:
[1] = test system: Human Dermal Fibroblasts (KMST-6); experiment: ECM ELISA assay: fibronectin secretion by human dermal fibroblasts; format: cell-based; settings: 5 μM; for Fibronectin secretion at 48 hours: KMST-6, 48 hours; for Fibronectin secretion at 48 hours / Fibronectin Secretion at 72 hours: % compared to control set at 100%, normalized to total protein; for Fibronectin Secretion at 72 hours / FIBRONECTIN (ECM Protein Summary Table): KMST-6, 72 hours; for FIBRONECTIN (ECM Protein Summary Table): control 100%
Protocol: (§1) KMST-6 cells (Japan Health Sciences Foundation, JCRB0433) were seeded at 7,000 cells/ml in 12-well tissue culture treated plates (Falcon, 353043) in complete media. The complete media consisted of the following: MEM/EBSS (Hyclone, SH30024.01), 10% Heat-Inactivated FBS (Gibco, 10082-147), 1% L-Glutamine (Hyclone, SH30031.01), 1% Nucleosides (800 mg/L Adenosine, 850 mg/L Guanidine, 730 mg/L Cytidine, 730 mg/L Uridine and 240 mg/L Thymidine), 1% Penicillin/Streptomycin (HyClone, SV30010), 1% Sodium Pyruvate (HyClone, SH30239.01), 1% Non-Essential Amino Acids (Hyclone, SH30238.01) and 0.04% Gentamicin (Gibco, 15710-064). Cells were grown for 2 days prior to treatments. The media was aspirated and cells were washed with 1×PBS (Fisher, SH30256.01) and treated with 5 μM (1 mL/well) glycopeptides, reference (Pal-KTTKS, CPC Scientific, 822197), and control (DMSO, Fisher, BP231-100) in serum-free media supplemented with 50 μg/mL Sodium Ascorbate (Sigma, A4034) and 80 μg/mL β-Aminopropionate Fumarate (Sigma, A3134). The treated cells were incubated at 37° C. and 5% CO2 for 48 and 72 hours. At each timepoint, media from each treatment was collected and centrifuged at 1500 RPM for 15 minutes at 4° C. The supernatant was collected and stored at −80° C. for extracellular matrix protein quantification. The following kits were used for quantification of ECM proteins: Fibronectin (Takara, MK115) and Elastin (Uscn Life Science Inc., E91337Hu). The cells were harvest and lysed with 250 μL Lysis Buffer (20 mM Tris-HCl (Sigma, T1503), 137 mM NaCl (Sigma, S9888), 2 mM EDTA (Fisher, BP118), 1% IGEPAL (Sigma, 18896), 10% Glycerol (Sigma, G5516), 100 μM PMSF (Fisher, 36978) and 10 μg/mL Leupeptin (Sigma-Aldrich, L2884). They were placed on a container of ice on a plate shaker (Lab-Line Instruments, 3595) for 30 minutes. The lysate was centrifuged at 10,000 g for 5 minutes at 4° C. The supernatant was collected and used for protein quantification (BioRad, 500-0112).
(§2) To determine effects on extracellular matrix protein secretion, 5 μM of individual glycopeptides were incubated with Human Dermal Fibroblasts (KMST-6). The control sample cells were treated with DMSO (Fisher, BP231-100). As described previously, supernatant was collected from treated cells (at two time-points, 48 and 72 hours of treatment) and stored at −80° C. for subsequent extracellular matrix protein quantification using ELISA kits (Fibronectin (Takara, MK115), Elastin (Uscn Life Science Inc., E91337Hu). For the determination of total cellular protein, treated cells were harvested and lysed. The lysate was centrifuged, the supernatant was collected and then used for protein quantification (BioRad, 500-0112). ELISA plates were read on the plate reader (Molecular Devices) at absorbance of 450 nm and SoftMax Pro software was used to compute the μg/ml values of protein of interest derived from the generated 4-parameter fit standard curve. Each μg/ml of protein secreted was normalized to total protein per well. The data was analysed by averaging out normalized values from at least three independent experiments and presenting them as a % compared to control treatment set at 100% (Table 2-5). Statistical significance was performed using One-way ANOVA (p<0.05) where “*” represents statistical significance when compared to control and “#” represents statistical significance when compared to reference. […]

[2] = test system: Human Dermal Fibroblasts (KMST-6); experiment: ECM ELISA assay: elastin secretion by human dermal fibroblasts; format: cell-based; settings: 5 μM; for Elastin Secretion at 48 hours: KMST-6, 48 hours; for Elastin Secretion at 48 hours / Elastin Secretion at 72 hours: % compared to control set at 100%, normalized to total protein; for Elastin Secretion at 72 hours / ELASTIN (ECM Protein Summary Table): KMST-6, 72 hours; for increased elastin secretion compared to control: versus DMSO control; for ELASTIN (ECM Protein Summary Table): control 100%
Protocol: as §1, §2

Substance | Fibronectin secretion at 48 hours [1] | Fibronectin Secretion at 72 hours [1] | Elastin Secretion at 48 hours [2] | Elastin Secretion at 72 hours [2] | biological activity in fibronectin secretion compared to control ([1]; 72 hours) | FIBRONECTIN (ECM Protein Summary Table) [1] | biological activity in elastin secretion compared to control ([2]; 72 hours) | increased elastin secretion compared to control ([2]; 72 hours) | ELASTIN (ECM Protein Summary Table) [2] | increased fibronectin secretion compared to control ([1]; 72 hours, versus DMSO control) | increased secretion of elastin compared to the reference peptide ([2]; 72 hours, versus Pal-KTTKS reference)
Pal-KT(β-GlcNAc)TKS-OH (Palmitoyl-KT(βGlcNAc)TKS-OH; SMILES CCCCCCCCCCCCCCCC(=O)N[C@@H](CCCCN)C(=O)N[C@H](C(=O)N[C@H](C(=O)N[C@@H](CCCCN)C(=O)N[C@@H](CO)C(=O)O)[C@@H](C)O)[C@@H](C)O[C@@H]1O[C@H](CO)[C@@H](O)[C@H](O)[C@H]1NC(C)=O; listed as Homo sapiens) [GP001-6] | 123.2% | 100.0% | 91.00% | 81.50% | – | – | – | – | – | – | –
Pal-KTT(Ac3-α-GalNAc)KS-OH (Palmitoyl-KTT(Ac3‑α‑GalNAc)KS-OH; SMILES CCCCCCCCCCCCCCCC(=O)N[C@@H](CCCCN)C(=O)N[C@H](C(=O)N[C@H](C(=O)N[C@@H](CCCCN)C(=O)N[C@@H](CO)C(=O)O)[C@@H](C)O[C@H]1O[C@H](COC(C)=O)[C@H](OC(C)=O)[C@H](OC(C)=O)[C@H]1NC(C)=O)[C@@H](C)O; listed as Homo sapiens) [GP001-9] | 123.4% | 104.8% | 103.7% | 104.3% | – | – | – | – | – | – | –
Pal-KTT(Ac3-β-GlcNAc)KS-OH (Palmitoyl-KTT(Ac3‑β‑GlcNAc)KS-OH; SMILES CCCCCCCCCCCCCCCC(=O)N[C@@H](CCCCN)C(=O)N[C@H](C(=O)N[C@H](C(=O)N[C@@H](CCCCN)C(=O)N[C@@H](CO)C(=O)O)[C@@H](C)O[C@@H]1O[C@H](COC(C)=O)[C@@H](OC(C)=O)[C@H](OC(C)=O)[C@H]1NC(C)=O)[C@@H](C)O; listed as Homo sapiens) [GP001-11] | 111.2% | 113.8% | 114.3% | 94.75% | – | – | – | – | – | – | –
Pal-KTT(α-GalNAc)KS-OH (Palmitoyl-KTT(αGalNAc)KS-OH; SMILES CCCCCCCCCCCCCCCC(=O)N[C@@H](CCCCN)C(=O)N[C@H](C(=O)N[C@H](C(=O)N[C@@H](CCCCN)C(=O)N[C@@H](CO)C(=O)O)[C@@H](C)O[C@H]1O[C@H](CO)[C@H](O)[C@H](O)[C@H]1NC(C)=O)[C@@H](C)O; listed as Homo sapiens) [GP001-10] | 100.2% | 104.0% | 103.0% | 98.67% | – | – | – | – | – | – | –
Pal-KTT(β-Glc)KS-OH (Palmitoyl-KTT(βGlc)KS-OH; SMILES CCCCCCCCCCCCCCCC(=O)N[C@@H](CCCCN)C(=O)N[C@H](C(=O)N[C@H](C(=O)N[C@@H](CCCCN)C(=O)N[C@@H](CO)C(=O)O)[C@@H](C)O[C@@H]1O[C@H](CO)[C@@H](O)[C@H](O)[C@H]1O)[C@@H](C)O; listed as Homo sapiens) [GP001-8] | 106.4% | 106.2% | 94.25% | 91.25% | – | – | – | – | – | – | –
Pal-KTT(β-GlcNAc)KS-OH (Palmitoyl-KTT(βGlcNAc)KS-OH; SMILES CCCCCCCCCCCCCCCC(=O)N[C@@H](CCCCN)C(=O)N[C@H](C(=O)N[C@H](C(=O)N[C@@H](CCCCN)C(=O)N[C@@H](CO)C(=O)O)[C@@H](C)O[C@@H]1O[C@H](CO)[C@@H](O)[C@H](O)[C@H]1NC(C)=O)[C@@H](C)O; listed as Homo sapiens) [GP001-12] | 106.5% | 89.25% | 73.00% | 76.75% | – | – | – | – | – | – | –
Pal-KTTKS(Ac3-α-GalNAc)-OH (Palmitoyl-KTTKS(Ac3‑α‑GalNAc″)-OH; SMILES CCCCCCCCCCCCCCCC(=O)N[C@@H](CCCCN)C(=O)N[C@H](C(=O)N[C@H](C(=O)N[C@@H](CCCCN)C(=O)N[C@@H](CO[C@H]1O[C@H](COC(C)=O)[C@H](OC(C)=O)[C@H](OC(C)=O)[C@H]1NC(C)=O)C(=O)O)[C@@H](C)O)[C@@H](C)O; listed as Homo sapiens) [GP002-1] | 114.7% | 108.0% | 144.8% | 145.5% | – | – | – | – | – | – | –
Pal-KTTKS(Ac3-β-GlcNAc)-OH (Palmitoyl-KTTKS(Ac3‑β‑GlcNAc)-OH; SMILES CCCCCCCCCCCCCCCC(=O)N[C@@H](CCCCN)C(=O)N[C@H](C(=O)N[C@H](C(=O)N[C@@H](CCCCN)C(=O)N[C@@H](CO[C@@H]1O[C@H](COC(C)=O)[C@@H](OC(C)=O)[C@H](OC(C)=O)[C@H]1NC(C)=O)C(=O)O)[C@@H](C)O)[C@@H](C)O; listed as Homo sapiens) [GP002-5] | 111.3% | 104.2% | 159.3% | 137.3% | – | – | – | – | – | – | –
Pal-KTTKS(Ac4-β-Gal)-OH (Palmitoyl-KTTKS(Ac4‑β‑Gal)-OH; SMILES CCCCCCCCCCCCCCCC(=O)N[C@@H](CCCCN)C(=O)N[C@H](C(=O)N[C@H](C(=O)N[C@@H](CCCCN)C(=O)N[C@@H](CO[C@@H]1O[C@H](COC(C)=O)[C@H](OC(C)=O)[C@H](OC(C)=O)[C@H]1OC(C)=O)C(=O)O)[C@@H](C)O)[C@@H](C)O; listed as Homo sapiens) [GP002-7] | 113.7% | 116.1% | 198.3% | 207.1* % | greater biological activity | 116% | greater biological activity | 107% | 207* % | – | –
Pal-KTTKS(Ac4-β-Glc)-OH (Palmitoyl-KTTKS(Ac4‑β‑Glc)-OH; SMILES CCCCCCCCCCCCCCCC(=O)N[C@@H](CCCCN)C(=O)N[C@H](C(=O)N[C@H](C(=O)N[C@@H](CCCCN)C(=O)N[C@@H](CO[C@@H]1O[C@H](COC(C)=O)[C@@H](OC(C)=O)[C@H](OC(C)=O)[C@H]1OC(C)=O)C(=O)O)[C@@H](C)O)[C@@H](C)O; listed as Homo sapiens) [GP002-3] | 135.5% | 134.5* % | 460.4* % | 321.6* % | greater biological activity | 135* % | greater biological activity | 222% | 322*^# % | 35% | 189%
